# In ChEMBL document CHEMBL4359821, “Identify liver X receptor β modulator building blocks by developing a fluorescence polarization-based competition assay” (Eur J Med Chem, 2019):
# Legend:
# [1] = biological target: T1, Oxysterols receptor LXR-beta (Homo sapiens, UniProt P55055); experiment: Binding affinity to recombinant human LXRbeta-LBD expressed in Escherichia coli BL21 (DE3) assessed as inhibitory constant incubated for 30 mins by fluorescence polarization binding assay
# [2] = biological target: T1, Oxysterols receptor LXR-beta; experiment: Agonist activity at recombinant human LXRbeta-LBD expressed in Escherichia coli BL21 (DE3) assessed as peptide D22 recruitment fluorescence polarization binding assay
# [3] = biological target: T1, Oxysterols receptor LXR-beta; experiment: Binding affinity to recombinant human LXRbeta-LBD expressed in Escherichia coli BL21 (DE3) assessed as dissociation constant incubated for 30 mins by fluorescence polarization binding assay
# T1 sequence (P55055 whole entry, the tested form may be a part): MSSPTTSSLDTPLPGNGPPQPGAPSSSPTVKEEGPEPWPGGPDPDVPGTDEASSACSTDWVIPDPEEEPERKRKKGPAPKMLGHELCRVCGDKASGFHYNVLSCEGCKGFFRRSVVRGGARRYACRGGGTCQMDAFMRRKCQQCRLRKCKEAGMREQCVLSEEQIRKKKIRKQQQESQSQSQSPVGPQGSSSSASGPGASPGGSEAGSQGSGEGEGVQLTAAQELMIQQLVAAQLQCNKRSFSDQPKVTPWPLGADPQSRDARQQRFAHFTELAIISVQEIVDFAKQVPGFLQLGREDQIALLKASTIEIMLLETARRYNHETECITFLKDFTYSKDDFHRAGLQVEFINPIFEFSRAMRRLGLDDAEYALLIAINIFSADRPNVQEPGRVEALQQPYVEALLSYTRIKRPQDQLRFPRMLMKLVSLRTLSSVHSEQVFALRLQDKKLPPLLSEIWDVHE
SMILES,Ki [1],EC50 [2],Kd [3]
O=C1Nc2ccc(Br)cc2CO1,> 500 µM,,
CCOC(=O)c1ccc(CN(Cc2ccc(-c3cccc(S(C)(=O)=O)c3)cc2)S(=O)(=O)c2c(C)cc(C)cc2C)o1,0.352 µM,,
N#CC[C@H](C1CCCC1)n1cc(-c2ncnc3[nH]ccc23)cn1 [RUXOLITINIB],45 µM,,
COC(=O)c1ccc2cc[nH]c2c1,302 µM,,
CCOC(=O)c1cn2nc[nH]c(=O)c2c1C(C)C,140 µM,19 µM,
CC(C)(C)OC(=O)N1Cc2cn[nH]c2C1,225 µM,,
Oc1ccc(Sc2ccc(O)cc2)cc1,68 µM,,
Oc1ccc(Cl)cc1 [PARACHLOROPHENOL],169 µM,514 µM,
CC(=O)c1c(C)ccc2ccccc12,153 µM,,
CC(C)[C@@H]1CN(c2ccc(CO)c(S(C)(=O)=O)c2)CCN1c1ncc(COC(=O)CCCCCNC(=S)Nc2ccc3c(c2)C(=O)OC32c3ccc(O)cc3Oc3cc(O)ccc32)c(C(F)(F)F)n1,,,0.0489 µM
Fc1ccc(-c2c3cccc(C(F)(F)F)c3nn2Cc2ccc(F)cc2Cl)cc1 [LXR-623],0.0142 µM,,
Brc1nn(C2CCCCO2)c2ncccc12 (stereo unspecified),209 µM,,
COc1ccc(OC)c(Cl)c1,476 µM,1030 µM,
O=C(O)Cc1cccc(OCCCN(Cc2cccc(C(F)(F)F)c2Cl)CC(c2ccccc2)c2ccccc2)c1,0.0022 µM,0.289 µM,
CCCCOC(=O)c1ccc(O)cc1 [BUTYLPARABEN],66 µM,,
Oc1cccc(Cl)c1,184 µM,519 µM,
